Results taken from ChEMBL document CHEMBL4354838, “Synthesis and in Vitro and in Vivo Biological Evaluation of Tissue-Specific Bisthiazole Histone Deacetylase (HDAC) Inhibitors” (J Med Chem, 2020).

Experiments:
[1] = target: Histone deacetylase 1 (Homo sapiens, UniProt Q13547); assay: biochemical; format: cell-based
Description: Inhibition of recombinant His6/GST-tagged human HDAC1 expressed in baculovirus infected High5 insect cells using Ac-Lys-Tyr-Lys(epsilon-acetyl)-AMC as substrate after 24 hrs by fluorescence based assay

[2] = target: Histone deacetylase 2 (Homo sapiens, UniProt Q92769); assay: biochemical; format: cell-based
Description: Inhibition of recombinant human His6/GST-tagged HDAC2 expressed in baculovirus infected High5 insect cells using Ac-Lys-Tyr-Lys(epsilon-acetyl)-AMC as susbtrate after 24 hrs by fluorescence based assay

[3] = target: Histone deacetylase 4 (Homo sapiens, UniProt P56524); assay: biochemical; format: cell-based
Chain of Histone deacetylase 4 (P56524 whole entry): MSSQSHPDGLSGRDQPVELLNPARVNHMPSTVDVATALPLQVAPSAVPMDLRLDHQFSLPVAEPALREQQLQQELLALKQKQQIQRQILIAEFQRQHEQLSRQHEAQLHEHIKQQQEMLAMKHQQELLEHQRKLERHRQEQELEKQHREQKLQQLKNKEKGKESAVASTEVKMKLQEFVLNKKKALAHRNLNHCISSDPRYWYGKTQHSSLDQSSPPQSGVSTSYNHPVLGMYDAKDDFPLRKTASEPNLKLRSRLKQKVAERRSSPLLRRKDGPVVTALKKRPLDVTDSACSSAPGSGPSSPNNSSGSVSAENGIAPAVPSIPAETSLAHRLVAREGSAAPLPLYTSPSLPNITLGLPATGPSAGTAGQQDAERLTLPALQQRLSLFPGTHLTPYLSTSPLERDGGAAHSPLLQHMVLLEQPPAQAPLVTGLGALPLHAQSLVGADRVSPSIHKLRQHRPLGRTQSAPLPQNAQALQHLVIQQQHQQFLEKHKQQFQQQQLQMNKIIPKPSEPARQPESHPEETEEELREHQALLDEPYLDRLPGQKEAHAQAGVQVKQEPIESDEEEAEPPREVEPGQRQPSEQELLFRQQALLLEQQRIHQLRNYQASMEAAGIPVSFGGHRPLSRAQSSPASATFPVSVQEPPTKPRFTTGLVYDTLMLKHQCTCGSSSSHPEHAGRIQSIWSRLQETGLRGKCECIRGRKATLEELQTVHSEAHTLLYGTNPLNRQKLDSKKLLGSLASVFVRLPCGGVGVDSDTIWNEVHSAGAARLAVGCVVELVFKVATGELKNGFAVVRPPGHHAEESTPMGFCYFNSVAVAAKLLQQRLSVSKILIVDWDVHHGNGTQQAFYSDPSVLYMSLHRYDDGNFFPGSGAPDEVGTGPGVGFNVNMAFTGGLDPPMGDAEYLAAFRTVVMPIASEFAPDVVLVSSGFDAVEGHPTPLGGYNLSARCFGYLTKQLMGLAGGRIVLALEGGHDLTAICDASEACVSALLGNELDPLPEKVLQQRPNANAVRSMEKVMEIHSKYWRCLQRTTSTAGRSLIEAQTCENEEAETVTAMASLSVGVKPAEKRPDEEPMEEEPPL
Description: Inhibition of recombinant human His6/GST-tagged HDAC4 expressed in baculovirus infected High5 insect cells using Ac-Leu-Gly-Lys(Tfa)-AMC as substrate after 24 hrs by fluorescence based assay

[4] = target: Histone deacetylase 5 (Homo sapiens, UniProt Q9UQL6); assay: biochemical; format: cell-based, Sf9
Chain of Histone deacetylase 5 (Q9UQL6 whole entry): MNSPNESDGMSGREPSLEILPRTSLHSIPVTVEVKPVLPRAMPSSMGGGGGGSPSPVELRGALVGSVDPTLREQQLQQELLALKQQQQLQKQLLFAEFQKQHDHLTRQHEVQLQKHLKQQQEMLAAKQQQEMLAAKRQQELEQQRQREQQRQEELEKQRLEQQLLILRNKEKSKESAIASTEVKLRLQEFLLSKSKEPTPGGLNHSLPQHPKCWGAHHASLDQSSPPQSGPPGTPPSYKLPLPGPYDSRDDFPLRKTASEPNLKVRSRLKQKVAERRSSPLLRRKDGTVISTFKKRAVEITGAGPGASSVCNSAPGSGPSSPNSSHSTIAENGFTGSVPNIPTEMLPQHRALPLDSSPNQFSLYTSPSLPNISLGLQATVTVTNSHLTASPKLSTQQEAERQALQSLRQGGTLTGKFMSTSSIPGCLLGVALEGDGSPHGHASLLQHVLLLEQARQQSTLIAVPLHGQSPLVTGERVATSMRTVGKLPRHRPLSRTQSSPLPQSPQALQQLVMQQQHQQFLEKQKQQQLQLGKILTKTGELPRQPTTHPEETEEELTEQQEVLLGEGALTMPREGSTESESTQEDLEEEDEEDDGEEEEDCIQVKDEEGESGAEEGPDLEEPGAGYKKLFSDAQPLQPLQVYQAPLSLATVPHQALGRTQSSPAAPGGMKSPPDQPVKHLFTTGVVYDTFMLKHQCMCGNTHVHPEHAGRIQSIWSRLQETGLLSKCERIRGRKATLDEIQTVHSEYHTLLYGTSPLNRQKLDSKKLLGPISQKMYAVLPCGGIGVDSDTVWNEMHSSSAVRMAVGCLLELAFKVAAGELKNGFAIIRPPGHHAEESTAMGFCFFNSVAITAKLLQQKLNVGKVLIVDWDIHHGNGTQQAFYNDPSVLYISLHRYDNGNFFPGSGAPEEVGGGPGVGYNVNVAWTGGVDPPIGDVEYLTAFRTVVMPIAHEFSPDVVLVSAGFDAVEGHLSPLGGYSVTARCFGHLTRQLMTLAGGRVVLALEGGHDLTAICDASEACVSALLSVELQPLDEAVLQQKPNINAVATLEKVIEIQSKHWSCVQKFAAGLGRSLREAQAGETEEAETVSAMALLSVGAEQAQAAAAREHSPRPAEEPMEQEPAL
Description: Inhibition of recombinant N-terminal GST-tagged full length human HDAC5 expressed in baculovirus infected Sf9 cells using Ac-Leu-Gly-Lys(Tfa)-AMC as substrate after 24 hrs by fluorescence based assay

[5] = target: Histone deacetylase 7 (Homo sapiens, UniProt Q8WUI4); assay: biochemical; format: cell-based, Sf9
[6] = target: Histone deacetylase 8 (Homo sapiens, UniProt Q9BY41); assay: biochemical; format: cell-based
Description: Inhibition of recombinant human His6/GST-tagged HDAC8 expressed in baculovirus infected High5 insect cells using Ac-Lys-Tyr-Lys(epsilon-acetyl)-AMC as susbtrate after 24 hrs by fluorescence based assay

[7] = target: Histone deacetylase 9 (Homo sapiens, UniProt Q9UKV0); assay: biochemical; format: cell-based, Sf9
Chain of Histone deacetylase 9 (Q9UKV0 whole entry): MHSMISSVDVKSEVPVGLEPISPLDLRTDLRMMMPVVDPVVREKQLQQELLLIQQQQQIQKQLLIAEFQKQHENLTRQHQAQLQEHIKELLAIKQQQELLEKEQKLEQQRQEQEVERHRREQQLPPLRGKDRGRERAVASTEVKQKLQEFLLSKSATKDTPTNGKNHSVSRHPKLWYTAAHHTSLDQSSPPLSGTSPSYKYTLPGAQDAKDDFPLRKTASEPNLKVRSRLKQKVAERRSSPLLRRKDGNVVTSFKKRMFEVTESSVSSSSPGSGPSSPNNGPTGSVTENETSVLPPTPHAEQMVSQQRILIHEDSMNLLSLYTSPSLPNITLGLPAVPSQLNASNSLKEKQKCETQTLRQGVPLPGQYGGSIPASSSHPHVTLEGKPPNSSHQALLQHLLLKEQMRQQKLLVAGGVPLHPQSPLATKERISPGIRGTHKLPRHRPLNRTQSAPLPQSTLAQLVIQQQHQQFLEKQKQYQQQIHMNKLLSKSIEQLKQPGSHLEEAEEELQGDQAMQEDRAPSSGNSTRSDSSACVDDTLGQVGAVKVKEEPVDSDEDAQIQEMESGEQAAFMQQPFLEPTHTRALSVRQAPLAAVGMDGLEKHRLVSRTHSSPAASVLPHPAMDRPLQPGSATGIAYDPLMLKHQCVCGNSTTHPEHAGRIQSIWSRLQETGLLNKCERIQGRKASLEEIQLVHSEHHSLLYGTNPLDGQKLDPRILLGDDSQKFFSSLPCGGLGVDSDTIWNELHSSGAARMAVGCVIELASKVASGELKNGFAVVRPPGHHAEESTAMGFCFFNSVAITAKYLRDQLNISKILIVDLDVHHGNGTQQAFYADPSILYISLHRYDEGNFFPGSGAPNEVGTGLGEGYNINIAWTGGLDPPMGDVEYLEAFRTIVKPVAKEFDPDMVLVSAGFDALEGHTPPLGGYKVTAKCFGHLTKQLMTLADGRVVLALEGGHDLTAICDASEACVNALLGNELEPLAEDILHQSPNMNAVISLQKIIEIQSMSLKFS

[8] = target: Polyamine deacetylase HDAC10 (Homo sapiens, UniProt Q969S8); assay: biochemical; format: cell-based
Description: Inhibition of recombinant human His6/GST-tagged HDAC10 expressed in baculovirus infected High5 insect cells using Ac-Lys-Tyr-Lys(epsilon-acetyl)-AMC as susbtrate after 24 hrs by fluorescence based assay

[9] = target: Histone deacetylase 11 (Homo sapiens, UniProt Q96DB2); assay: biochemical; format: cell-based
Chain of Histone deacetylase 11 (Q96DB2 whole entry): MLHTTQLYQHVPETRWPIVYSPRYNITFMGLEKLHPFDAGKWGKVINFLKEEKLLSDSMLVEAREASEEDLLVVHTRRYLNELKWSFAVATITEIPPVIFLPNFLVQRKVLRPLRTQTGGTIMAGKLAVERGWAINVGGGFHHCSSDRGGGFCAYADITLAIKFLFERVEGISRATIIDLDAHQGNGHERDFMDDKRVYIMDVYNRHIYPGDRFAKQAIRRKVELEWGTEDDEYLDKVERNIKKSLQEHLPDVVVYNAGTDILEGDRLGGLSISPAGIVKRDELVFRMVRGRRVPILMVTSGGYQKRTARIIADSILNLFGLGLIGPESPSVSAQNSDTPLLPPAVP
Description: Inhibition of recombinant human His6/GST-tagged HDAC11 expressed in baculovirus infected High5 insect cells using Ac-Lys-Tyr-Lys(epsilon-acetyl)-AMC as susbtrate after 24 hrs by fluorescence based assay

[10] = target: NAD-dependent protein deacetylase sirtuin-1 (Homo sapiens, UniProt Q96EB6)
Description: Inhibition of recombinant human N-terminal GST-tagged SIRT1 expressed in Escherichia coli using Ac-Arg-His-Lys-Lys(Ac)-AMC as susbtrate after 1 hr by fluorescence based assay

[11] = target: NAD-dependent protein deacetylase sirtuin-2 (Homo sapiens, UniProt Q8IXJ6)
Chain of NAD-dependent protein deacetylase sirtuin-2 (Q8IXJ6 whole entry): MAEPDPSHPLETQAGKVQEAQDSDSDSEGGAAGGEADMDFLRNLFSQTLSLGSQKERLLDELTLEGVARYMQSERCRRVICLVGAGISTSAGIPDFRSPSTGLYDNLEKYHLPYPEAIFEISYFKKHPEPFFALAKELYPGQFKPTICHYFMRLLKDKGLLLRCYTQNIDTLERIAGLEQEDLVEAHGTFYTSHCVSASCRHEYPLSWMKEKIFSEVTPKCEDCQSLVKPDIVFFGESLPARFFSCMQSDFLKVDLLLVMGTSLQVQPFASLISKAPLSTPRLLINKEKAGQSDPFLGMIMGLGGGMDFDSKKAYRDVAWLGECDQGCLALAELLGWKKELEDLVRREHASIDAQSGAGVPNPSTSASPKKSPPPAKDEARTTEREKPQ
Description: Inhibition of recombinant human N-terminal GST-tagged SIRT2 expressed in Escherichia coli using Ac-Arg-His-Lys-Lys(Ac)-AMC as susbtrate after 2 hrs by fluorescence based assay

[12] = target: NAD-dependent protein deacetylase sirtuin-3, mitochondrial (Homo sapiens, UniProt Q9NTG7)
Chain of NAD-dependent protein deacetylase sirtuin-3, mitochondrial (Q9NTG7 whole entry): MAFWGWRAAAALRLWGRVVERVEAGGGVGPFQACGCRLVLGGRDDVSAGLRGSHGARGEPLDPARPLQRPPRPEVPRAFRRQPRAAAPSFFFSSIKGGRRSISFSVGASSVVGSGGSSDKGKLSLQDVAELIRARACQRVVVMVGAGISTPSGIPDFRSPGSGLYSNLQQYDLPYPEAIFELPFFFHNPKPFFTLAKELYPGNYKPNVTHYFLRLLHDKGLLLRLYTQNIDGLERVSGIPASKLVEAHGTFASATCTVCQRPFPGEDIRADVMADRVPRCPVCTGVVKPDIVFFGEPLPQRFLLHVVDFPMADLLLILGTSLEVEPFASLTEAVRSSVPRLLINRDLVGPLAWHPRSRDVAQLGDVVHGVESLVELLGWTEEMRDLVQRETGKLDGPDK
Description: Inhibition of recombinant human N-terminal His-tagged SIRT3 expressed in Escherichia coli using Ac-Arg-His-Lys-Lys(Ac)-AMC as susbtrate after 2 hrs by fluorescence based assay

[13] = test system: Bel-7402; assay: cells; format: functional, cell-based; details: Homo sapiens, Bel-7402, 72 h
Description: Antiproliferative activity against human Bel7402 cells assessed as reduction in cell growth after 72 hrs

[14] = test system: NCI-H1975; assay: cells; format: functional, cell-based; details: Homo sapiens, NCI-H1975, 72 h
Description: Antiproliferative activity against human NCI-H1975 cells assessed as reduction in cell growth after 72 hrs

[15] = test system: EBC-1; assay: cells; format: functional, cell-based; details: Homo sapiens, EBC-1, 72 h
Description: Antiproliferative activity against human EBC1 cells assessed as reduction in cell growth after 72 hrs

[16] = test system: MCF7; assay: cells; format: functional, cell-based; details: Homo sapiens, MCF7, 72 h
Description: Antiproliferative activity against human MCF7 cells assessed as reduction in cell growth after 72 hrs

[17] = test system: MDA-MB-231; assay: cells; format: functional, cell-based; details: Homo sapiens, MDA-MB-231, 72 h
Description: Antiproliferative activity against human MDA-MB-231 cells assessed as reduction in cell growth after 72 hrs

[18] = test system: T47D; assay: cells; format: functional, cell-based; details: Homo sapiens, 72 h
Description: Antiproliferative activity against human T47D cells assessed as reduction in cell growth after 72 hrs

[19] = test system: NCI-N87; assay: cells; format: functional, cell-based; details: Homo sapiens, NCI-N87, 72 h
Description: Antiproliferative activity against human NCI-N87 cells assessed as reduction in cell growth after 72 hrs

[20] = test system: HT-29; assay: cells; format: functional, cell-based; details: Homo sapiens, HT-29, 72 h
Description: Antiproliferative activity against human HT-29 cells assessed as reduction in cell growth after 72 hrs

[21] = test system: HT-29; format: functional, Homo sapiens; details: at 50 mg/kg
Description: Antitumor activity against human HT-29 cells xenografted in nude mouse assessed as reduction in tumor growth at 50 mg/kg, po qd for 21 days relative to control

[22] = test system: HT-29; format: functional, Homo sapiens; details: at 100 mg/kg
Description: Antitumor activity against human HT-29 cells xenografted in nude mouse assessed as reduction in tumor growth at 100 mg/kg, po qd for 21 days relative to control

[23] = test system: HT-29; format: functional, Homo sapiens; details: at 25 mg/kg
Description: Antitumor activity against human HT-29 cells xenografted in nude mouse assessed as reduction in tumor growth at 25 mg/kg, po qd for 21 days relative to control

[24] = mouse, in vivo
[25] = mouse, in vivo; remark: listed apart in the source
[26] = mouse, in vivo; remark: listed apart in the source
[27] = mouse, in vivo; remark: listed apart in the source
[28] = mouse, in vivo; remark: listed apart in the source
[29] = mouse, in vivo; remark: listed apart in the source
[30] = mouse, in vivo; remark: listed apart in the source
[31] = mouse, in vivo; remark: listed apart in the source
[32] = mouse, in vivo; remark: listed apart in the source
[33] = mouse, in vivo; remark: listed apart in the source
[34] = mouse, in vivo; remark: listed apart in the source
[35] = human, hepatocytes, 3 h, 3 µM
[36] = cynomolgus monkey, hepatocytes, 3 h, 3 µM
[37] = dog, hepatocytes, 3 h, 3 µM
[38] = rat, hepatocytes, 3 h, 3 µM
[39] = mouse, hepatocytes, 3 h, 3 µM
[40] = human, hepatocytes, 3 h, 3 µM; remark: listed apart in the source
[41] = cynomolgus monkey, hepatocytes, 3 h, 3 µM; remark: listed apart in the source
[42] = dog, hepatocytes, 3 h, 3 µM; remark: listed apart in the source
[43] = rat, hepatocytes, 3 h, 3 µM; remark: listed apart in the source
[44] = mouse, hepatocytes, 3 h, 3 µM; remark: listed apart in the source
[45] = human, hepatocytes, 3 h, 3 µM; remark: listed apart in the source
[46] = cynomolgus monkey, hepatocytes, 3 h, 3 µM; remark: listed apart in the source
[47] = dog, hepatocytes, 3 h, 3 µM; remark: listed apart in the source
[48] = rat, hepatocytes, 3 h, 3 µM; remark: listed apart in the source
[49] = mouse, hepatocytes, 3 h, 3 µM; remark: listed apart in the source
[50] = human, hepatocytes, 3 h, 3 µM; remark: listed apart in the source
[51] = cynomolgus monkey, hepatocytes, 3 h, 3 µM; remark: listed apart in the source
[52] = dog, hepatocytes, 3 h, 3 µM; remark: listed apart in the source
[53] = rat, hepatocytes, 3 h, 3 µM; remark: listed apart in the source
[54] = mouse, hepatocytes, 3 h, 3 µM; remark: listed apart in the source
[55] = mouse, in vivo, po, 50 mg/kg, 1 h
[56] = mouse, in vivo, po, 50 mg/kg, 1 h; remark: listed apart in the source
[57] = mouse, in vivo, po, 50 mg/kg, 1 h; remark: listed apart in the source
[58] = mouse, in vivo, po, 50 mg/kg, 1 h; remark: listed apart in the source
[59] = mouse, in vivo, po, 50 mg/kg, 1 h; remark: listed apart in the source
[60] = mouse, in vivo, po, 50 mg/kg, 1 h; remark: listed apart in the source
[61] = mouse, in vivo, po, 50 mg/kg, 1 h; remark: listed apart in the source
[62] = mouse, in vivo, po, 50 mg/kg, 1 h; remark: listed apart in the source
[63] = mouse, in vivo, po, 50 mg/kg, 1 h; remark: listed apart in the source
[64] = mouse, in vivo, po, 50 mg/kg, 1 h; remark: listed apart in the source
[65] = mouse, in vivo, po, 50 mg/kg, 1 h; remark: listed apart in the source
[66] = mouse, in vivo, po, 50 mg/kg, 6 h
[67] = mouse, in vivo, iv, 10 mg/kg
[68] = mouse, in vivo, iv, 10 mg/kg; remark: listed apart in the source
[69] = human, hepatocytes, 3 h, 3 µM; remark: listed apart in the source
[70] = cynomolgus monkey, hepatocytes, 3 h, 3 µM; remark: listed apart in the source
[71] = dog, hepatocytes, 3 h, 3 µM; remark: listed apart in the source
[72] = rat, hepatocytes, 3 h, 3 µM; remark: listed apart in the source
[73] = mouse, hepatocytes, 3 h, 3 µM; remark: listed apart in the source
[74] = human, hepatocytes, 3 h, 3 µM; remark: listed apart in the source
[75] = cynomolgus monkey, hepatocytes, 3 h, 3 µM; remark: listed apart in the source
[76] = dog, hepatocytes, 3 h, 3 µM; remark: listed apart in the source
[77] = rat, hepatocytes, 3 h, 3 µM; remark: listed apart in the source
[78] = mouse, hepatocytes, 3 h, 3 µM; remark: listed apart in the source
[79] = in vivo; details: ICR, mouse, iv, 2 mg/kg
[80] = in vivo; details: ICR, mouse, iv, 2 mg/kg; remark: listed apart in the source
[81] = in vivo; details: ICR, mouse, iv, 2 mg/kg; remark: listed apart in the source
[82] = in vivo; details: ICR, mouse, iv, 2 mg/kg; remark: listed apart in the source
[83] = in vivo; details: ICR, mouse, po, 5 mg/kg
[84] = in vivo; details: ICR, mouse, po, 5 mg/kg; remark: listed apart in the source
[85] = in vivo; details: ICR, mouse, po, 5 mg/kg; remark: listed apart in the source
[86] = in vivo; details: ICR, mouse, po, 5 mg/kg; remark: listed apart in the source
[87] = in vivo; details: ICR, mouse, po, 5 mg/kg; remark: listed apart in the source
Description: Mean residence time in ICR mouse at 5 mg/kg, po after 1 hr to 24 hrs by LC-MS analysis

[88] = in vivo; details: ICR, mouse, po, 5 mg/kg; remark: listed apart in the source
Description: Half life in ICR mouse at 5 mg/kg, po measured up to 24 hrs by LC-MS analysis

[89] = in vivo; details: ICR, mouse, po, 5 mg/kg; remark: listed apart in the source
[90] = in vivo; details: ICR, mouse, other tissue
[91] = in vivo; details: ICR, mouse, other tissue; remark: listed apart in the source
[92] = in vivo; details: ICR, mouse, other tissue; remark: listed apart in the source
[93] = in vivo; details: ICR, mouse, other tissue; remark: listed apart in the source
[94] = in vivo; details: ICR, mouse, other tissue; remark: listed apart in the source
[95] = in vivo; details: ICR, mouse, other tissue; remark: listed apart in the source
[96] = in vivo; details: female, ICR, mouse, other tissue
[97] = in vivo; details: female, ICR, mouse, other tissue; remark: listed apart in the source
[98] = in vivo; details: male, ICR, mouse, other tissue
[99] = in vivo; details: ICR, mouse, brain

Chain of Histone deacetylase 1 (Q13547 whole entry): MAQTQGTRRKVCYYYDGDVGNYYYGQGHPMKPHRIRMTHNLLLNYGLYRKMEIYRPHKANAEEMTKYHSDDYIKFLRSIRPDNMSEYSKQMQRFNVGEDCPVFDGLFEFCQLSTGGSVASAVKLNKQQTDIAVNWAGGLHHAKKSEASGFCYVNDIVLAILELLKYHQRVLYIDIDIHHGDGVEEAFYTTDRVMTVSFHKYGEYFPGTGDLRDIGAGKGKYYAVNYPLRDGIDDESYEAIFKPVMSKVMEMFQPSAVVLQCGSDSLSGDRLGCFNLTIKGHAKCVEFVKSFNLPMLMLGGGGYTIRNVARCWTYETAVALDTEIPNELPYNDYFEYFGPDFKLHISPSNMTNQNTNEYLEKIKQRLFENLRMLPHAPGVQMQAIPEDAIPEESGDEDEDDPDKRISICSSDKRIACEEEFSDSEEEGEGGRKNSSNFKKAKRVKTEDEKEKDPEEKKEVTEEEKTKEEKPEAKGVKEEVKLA

O=C(NO)c1ccc(C2(NC(=O)c3nc(-c4nccs4)sc3C3CC3)CC2)cc1
IC50 [1]: 22.3 nM

CC(C)(NC(=O)c1nc(-c2nccs2)sc1C1CC1)c1ccc(C(=O)NO)cc1
IC50 [1]: 163 nM

C[C@H](NC(=O)c1nc(-c2ncc(-c3ccccc3)s2)sc1C1CC1)c1ccc(C(=O)NO)cc1
IC50 [2]: 13.3 nM | IC50 [3]: > 20000 nM | IC50 [4]: 16700 nM | IC50 [5]: > 20000 nM | IC50 [6]: 16.8 nM | IC50 [7]: > 20000 nM | IC50 [8]: 1.98 nM | IC50 [9]: 77.8 nM | IC50 [10]: > 20000 nM | IC50 [11]: > 20000 nM | IC50 [12]: > 20000 nM | IC50 [13]: 80.8 nM | IC50 [14]: 66.4 nM | IC50 [15]: 110 nM | IC50 [16]: 58.5 nM | IC50 [17]: 76.6 nM | IC50 [18]: 40.8 nM | IC50 [19]: 28.3 nM | IC50 [20]: 166 nM | T/C [21]: 59.72% | T/C [22]: 37.56% | T/C [23]: 60.58% | AUC [24]: 105642 ng·h/g | AUC [25]: 8795 ng·h/g | AUC [26]: 6079 ng·h/g | AUC [27]: 5185 ng·h/g | AUC [28]: 4692 ng·h/g | AUC [29]: 3438 ng·h/g | AUC [30]: 2622 ng·h/g | AUC [31]: 1964 ng·h/g | AUC [32]: 1472 ng·h/g | AUC [33]: 698 ng·h/g | AUC [34]: 599 ng·h/g | Drug metabolism [35]: Metabolite_Detected | Drug metabolism [36]: Metabolite_Detected | Drug metabolism [37]: Metabolite_Detected | Drug metabolism [38]: Metabolite_Detected | Drug metabolism [39]: Metabolite_Detected | Drug metabolism [40]: Metabolite_Detected | Drug metabolism [41]: Metabolite_Detected | Drug metabolism [42]: Metabolite_Detected | Drug metabolism [43]: Metabolite_Detected | Drug metabolism [44]: Metabolite_Detected | Drug metabolism [45]: Metabolite_Detected | Drug metabolism [46]: Metabolite_Detected | Drug metabolism [47]: Metabolite_Detected | Drug metabolism [48]: Metabolite_Detected | Drug metabolism [49]: Metabolite_Detected | Drug metabolism [50]: Metabolite_Detected | Drug metabolism [51]: Metabolite_Detected | Drug metabolism [52]: Metabolite_Detected | Drug metabolism [53]: Metabolite_Detected | Drug metabolism [54]: Metabolite_Detected | Drug uptake [55]: Active | Drug uptake [56]: Active | Drug uptake [57]: Active | Drug uptake [58]: Active | Drug uptake [59]: Active | Drug uptake [60]: Active | Drug uptake [61]: Active | Drug uptake [62]: Active | Drug uptake [63]: Active | Drug uptake [64]: Active | Drug uptake [65]: Active | Drug uptake [66]: Active | Drug uptake [67]: Active | Drug uptake [68]: Active | Drug metabolism [69]: Metabolite_Notdetected | Drug metabolism [70]: Metabolite_Notdetected | Drug metabolism [71]: Metabolite_Notdetected | Drug metabolism [72]: Metabolite_Notdetected | Drug metabolism [73]: Metabolite_Notdetected | Drug metabolism [74]: Metabolite_Notdetected | Drug metabolism [75]: Metabolite_Notdetected | Drug metabolism [76]: Metabolite_Notdetected | Drug metabolism [77]: Metabolite_Notdetected | Drug metabolism [78]: Metabolite_Notdetected | AUC(0-t) [79]: 1080 ng·h/mL | AUC(0-inf) [80]: 1250 ng·h/mL | MRT [81]: 10.4 h | half-life [82]: 8.67 h | Tmax at 24 h [83]: 0.67 h | Cmax [84]: 138 ng/mL | AUC(0-t) [85]: 924 ng·h/mL | AUC(0-inf) [86]: 944 ng·h/mL | MRT [87]: 5.22 h | half-life at 24 h [88]: 4.23 h | bioavailability [89]: 34 to 34.4% | Kp [90]: 176 | Kp [91]: 14.7 | Kp [92]: 10.2 | Kp [93]: 8.66 | Kp [94]: 7.84 | Kp [95]: 5.74 | Kp [96]: 4.38 | Kp [97]: 3.28 | Kp [98]: 2.46 | Kp [99]: 1.17
